This passage reports IC50 results from patent publication US20250122211A1, “NITROGEN-CONTAINING TETRACYCLIC COMPOUND, PREPARATION METHOD THEREFOR, AND MEDICAL USE THEREOF” (Jiangsu Hengrui Pharmaceuticals Co., Ltd., priority 2021, published 2025).

Read-outs that look alike come from different tables or passages of the source.

Common to all, as to assay type: cell-based
In experiment [1] the test system is ERK phosphorylation in H358 cells. In words: H358 cell ERK phosphorylation inhibition assay (HTRF pERK/total ERK). The conditions noted are these: 3 h incubation, ratio of pERK/total ERK, read-out: IC50 (nM), inhibitory effects on ERK phosphorylation in H358 cells. Here is the method:
The inhibitory effects of the compounds of the present disclosure on ERK phosphorylation in H358 cells were measured. Below is a brief description of the experimental method: H358 cells (ATCC, CRL-5807) were cultured in RPMI1640 medium (Hyclone, SH30809.01) containing 10% fetal bovine serum (Corning, 35-076-CV) (i.e., complete medium). On the first day of the experiment, H358 cells were seeded into a 96-well plate at a density of 25,000 cells/well using complete medium, with 190 μL of cell suspension per well, and the plate was incubated overnight in a 37° C., 5% CO2 cell incubator. On the second day, the test compounds, prepared in complete medium and serially diluted, were added at 10 μL/well. The final concentrations of the compounds were 9 concentration points obtained by a 6-fold serial dilution from 10 μM. A blank control containing 0.5% DMSO was set up. The plate was incubated for 3 h in a 37° C., 5% CO2 cell incubator. After 3 h, the 96-well cell culture plate was removed from the incubator, and the culture medium was pipetted off. PBS (Shanghai BasalMedia Technologies Co., Ltd., B320) was added at 200 μL/well for a single wash. PBS was pipetted off, and lysis buffer (Cisbio, 64KL1FDF) containing a blocking agent (Cisbio, 64KB1AAC) was added at 50 μL/well. The plate was incubated on a shaker for 30 min at room temperature to lyse the cells. After lysis, the lysates were well mixed by pipetting, and 16 μL of lysate was transferred from each well to two HTRF 96-well assay plates (Cisbio, 66PL96100). Subsequently, 4 μL of a premixed phospho-ERK1/2 antibody solution (Cisbio, 64AERPEG) or 4 μL of a premixed total-ERK1/2 antibody solution (Cisbio, 64NRKPEG) was added to each of the plates. The plates were sealed with a plate sealer film, centrifuged for 1 min in a microplate centrifuge, and incubated overnight at room temperature in the dark. On the third day, fluorescence values at an excitation wavelength of 337 nm and emission wavelengths of 665 nm and 620 nm were measured using a PHERAstar multifunctional microplate reader (BMG Labtech, PHERAstar FS). The IC50 values for the inhibitory activity of the compounds were calculated using Graphpad Prism software, based on the compound concentration and the ratio of pERK/total ERK.

The test system of experiment [2] is MIA PaCa-2 cells. Briefly: MIA PaCa-2 cell proliferation assay (CellTiter-Glo). The note with it: 72 h incubation, read-out: IC50 (nM), inhibitory activity against MIA PaCa-2 cell proliferation. Here is the method:
The inhibitory activity of the compounds of the present disclosure against MIA PaCa-2 cell proliferation was measured. Below is a brief description of the experimental method:
MIA PaCa-2 cells (ATCC, CRL-1420) were cultured in DMEM/HIGH GLUCOSE medium (GE, SH30243.01) containing 10% fetal bovine serum (Corning, 35-076-CV) and 2.5% horse serum (Beyotime Biological Tech., C0262) (i.e., complete medium). On the first day of the experiment, MIA PaCa-2 cells were seeded into a 96-well plate at a density of 500 cells/well using complete medium, with 90 µL of cell suspension per well, and the plate was incubated overnight in a 37° C., 5% CO2 cell incubator. On the second day, the test compounds, prepared in complete medium and serially diluted, were added at 10 μL/well. The final concentrations of the compounds were 9 concentration points obtained by a 5-fold serial dilution from 10 μM. A blank control containing 0.5% DMSO was set up. The plate was incubated for 72 h in a 37° C., 5% CO2 cell incubator. On the fifth day, the 96-well cell plate was removed from the incubator, and CellTiter-Glo® Luminescent Cell Viability Assay (Promega, G7573) was added at 50 μL/well. After 10 min of room temperature incubation, luminescence signals were measured using a multifunctional microplate reader (PerkinElmer, EnVision2015). The IC50 values for the inhibitory activity of the compounds were calculated using Graphpad Prism software.

The test system of experiment [3] is H358 cells. In words: H358 proliferation assay (CellTiter-Glo). The note with it: 120 h incubation, read-out: IC50 (nM), inhibitory activity against H358 cell proliferation. The method, then:
The inhibitory activity of the compounds of the present disclosure against H358 cell proliferation was measured. Below is a brief description of the experimental method: H358 cells (ATCC, CRL-5807) were cultured in RPMI1640 medium (Hyclone, SH30809.01) containing 10% fetal bovine serum (Corning, 35-076-CV) (i.e., complete medium). On the first day of the experiment, H358 cells were seeded into a 96-well plate at a density of 1200 cells/well using complete medium, with 100 μL of cell suspension per well, and the plate was incubated overnight in a 37° C., 5% CO2 cell incubator. On the second day, the test compounds, prepared in complete medium and serially diluted, were added at 10 μL/well. The final concentrations of the compounds were 9 concentration points obtained by a 5-fold serial dilution from 10 μM. A blank control containing 0.5% DMSO was set up. The plate was incubated for 120 h in a 37° C., 5% CO2 cell incubator. On the seventh day, the 96-well cell plate was removed from the incubator, and CellTiter-Glo® Luminescent Cell Viability Assay (Promega, G7573) was added at 50 μL/well. After 10 min of room temperature incubation, luminescence signals were measured using a multifunctional microplate reader (PerkinElmer, EnVision® 2105). The IC50 values for the inhibitory activity of the compounds were calculated using Graphpad Prism software.

Consider `C=CC(=O)N1CCN2C(=O)c3cc(F)c(-c4ccc(F)c5sc(N)c(C#N)c45)c4cnn(c34)CC[C@H]2C1` (atropisomer, axis not shown) [Example 1-P1, (R)-4-((S)-10-Acryloyl-2-fluoro-14-oxo-8,8a,9,10,11,12-hexahydro-7H,14H-pyrazino[1′,2′:5,6][1,5]diazocino[3,2,1-hi]indazol-3-yl)-2-amino-7-fluorobenzo[b]thiophene-3-carbonitrile], for which the values for the IC50 in experiment [1], in experiment [2] and in experiment [3] were 1.33 nM, 2.79 nM and 12 nM, respectively.

Regarding `C=CC(=O)N1CCN2C(=O)c3cc(F)c(-c4ccc(F)c5sc(N)c(C#N)c45)c4cnn(c34)CC[C@H]2C1` (atropisomer, axis not shown) [Example 1-P2, (S)-4-((S)-10-Acryloyl-2-fluoro-14-oxo-8,8a,9,10,11,12-hexahydro-7H,14H-pyrazino[1′,2′:5,6][1,5]diazocino[3,2,1-hi]indazol-3-yl)-2-amino-7-fluorobenzo[b]thiophene-3-carbonitrile], the values for the IC50 in experiment [1], in experiment [2] and in experiment [3] were 0.07 nM, 0.4 nM and 0.93 nM, respectively.

Regarding `C=C(F)C(=O)N1CCN2C(=O)c3cc(F)c(-c4ccc(F)c5sc(N)c(C#N)c45)c4cnn(c34)CC[C@H]2C1` (atropisomer, axis not shown) [Example 6-P1, (R)-2-Amino-7-fluoro-4-((S)-2-fluoro-10-(2-fluoroacryloyl)-14-oxo-8,8a,9,10,11,12-hexahydro-7H,14H-pyrazino[1′,2′:5,6][1,5]diazocino[3,2,1-hi]indazol-3-yl)benzo[b]thiophene-3-carbonitrile], the IC50 amounted to 1.45 nM in experiment [1], 13.9 nM in experiment [2] and 9.75 nM in experiment [3].

Take `C=CC(=O)N1CCN2C(=O)c3cc(F)c(-c4ccc(F)c5sc(N)c(C#N)c45)c4c(C)nn(c34)CC[C@H]2C1` (atropisomer, axis not shown) [Example 9-P1, (R)-4-((S)-10-Acryloyl-2-fluoro-4-methyl-14-oxo-8,8a,9,10,11,12-hexahydro-7H,14H-pyrazino[1′,2′:5,6][1,5]diazocino[3,2,1-hi]indazol-3-yl)-2-amino-7-fluorobenzo[b]thiophene-3-carbonitrile]: in experiment [1], the IC50 worked out at 32.5 nM.

In the case of `C=CC(=O)N1CCN2C(=O)c3cc(F)c(-c4ccc(F)c5sc(N)c(C#N)c45)c4cnn(c34)CC[C@@H]2C1` (atropisomer, axis not shown) [Example 12-P2, (S)-4-((R)-10-Acryloyl-2-fluoro-14-oxo-8,8a,9,10,11,12-hexahydro-7H,14H-pyrazino[1′,2′:5,6][1,5]diazocino[3,2,1-hi]indazol-3-yl)-2-amino-7-fluorobenzo[b]thiophene-3-carbonitrile], the IC50 in experiment [1] (Homo sapiens, NCI-H358, 3 h) turned out to be 11.3 nM; in experiment [2] (Homo sapiens, MIA PaCa-2, 72 h), 35.3 nM.

`C=CC(=O)N1CCN2C(=O)c3cc(F)c(-c4ccc(F)c5sc(N)nc45)c4ccn(c34)CC[C@H]2C1` [Example 3, (8aS)-10-Acryloyl-3-(-2-amino-7-fluorobenzo[d]thiazol-4-yl)-2-fluoro-8,8a,9,10,11,12-hexahydro-7H,14H-pyrazino[1′,2′:5,6][1,5]diazocino[3,2,1-hi]indol-14-one]: in experiment [1] (Homo sapiens, NCI-H358, 3 h), the IC50 turned out to be 23.7 nM.

With `C=C(F)C(=O)N1CCN2C(=O)c3cc(F)c(-c4ccc(F)c5sc(N)c(C#N)c45)c4ccn(c34)CC[C@H]2C1` [Example 5, 2-Amino-7-fluoro-4-((S)-2-fluoro-10-(2-fluoroacryloyl)-14-oxo-8,8a,9,10,11,12-hexahydro-7H,14H-pyrazino[1′,2′:5,6][1,5]diazocino[3,2,1-hi]indol-3-yl)benzo[b]thiophene-3-carbonitrile], in experiment [1] (Homo sapiens, NCI-H358, 3 h), the IC50 stood at 36.2 nM.

Turning to `C=CC(=O)N1CCN2C(=O)c3cc(F)c(-c4ccc(F)c5sc(N)c(C#N)c45)c4cnn(c34)C[C@H]2C1` [Example 14, 4-((R)-10-Acryloyl-4-fluoro-6-oxo-8,9,10,11,11a,12-hexahydro-6H-pyrazino[2′,1′:3,4][1,4]diazepino[6,7,1-hi]indazol-3-yl)-2-amino-7-fluorobenzo[b]thiophene-3-carbonitrile], the IC50 was determined as 1.35 nM in experiment [1] (Homo sapiens, NCI-H358, 3 h) and 39.6 nM in experiment [2] (Homo sapiens, MIA PaCa-2, 72 h).
